Where a name gives a salt, the structure may show the parent alone.
Tests used:
[1] = target: T1, 5-HT4 receptor (Cavia porcellus, UniProt O70528); assay: Test Example 1: Serotonin 4 (5-HT4) receptor binding assay, [3H]-GR113808, guinea pig striatum membranes (Table 96); conditions: Guinea pig 5-HT4 receptor binding assay, [3H]-GR113808, striatum membranes; mean value of each group
T1 construct: striatum was isolated which was cryopreserved at −80° C. until use; from tissue; host or cells: guinea pig (Slc-Hartley) striatum membranes
T1 sequence (O70528 whole entry): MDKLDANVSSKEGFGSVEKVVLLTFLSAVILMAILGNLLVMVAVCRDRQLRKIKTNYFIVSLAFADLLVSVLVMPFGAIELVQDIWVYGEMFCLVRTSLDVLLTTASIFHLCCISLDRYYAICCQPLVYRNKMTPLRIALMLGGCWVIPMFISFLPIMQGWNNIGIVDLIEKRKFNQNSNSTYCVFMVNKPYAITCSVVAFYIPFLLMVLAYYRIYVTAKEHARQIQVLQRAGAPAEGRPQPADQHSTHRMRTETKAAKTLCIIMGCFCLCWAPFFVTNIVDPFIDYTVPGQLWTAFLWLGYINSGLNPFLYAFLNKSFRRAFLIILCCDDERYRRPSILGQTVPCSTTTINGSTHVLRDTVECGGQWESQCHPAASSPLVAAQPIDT
Method: The 5-HT4 receptor binding assay and preparations of receptor membrane preparations herein were carried out according to a method of Grossman et al. [see, British J. Pharmacol., (1993) 109, 618].
Slc-Hartley guinea pigs (body weight 300 g to 400 g) were decapitated to remove brain rapidly, and striatum was isolated which was cryopreserved at −80° C. until use. To the obtained tissues were added fifteen fold of Hepes buffer (50 mM, pH 7.4, 4° C.), and the mixture was homogenized by Teflon (trademark) homogenizer and centrifuged at 48,000×g (4° C.) for 15 minutes. To the resulting precipitate was added Hepes buffer (1 ml) to 30 mg by wet weight of tissues, and the mixture was suspended to give receptor membrane preparations.
To an assay tube were added 0.1 nM [^3H]-GR113808 {chemical name: [1-[2-(methylsulfonylamino)ethyl]-4-piperidinyl]methyl 1-methylindole-3-carboxylate}, receptor membrane preparations, and Hepes buffer (50 mM, pH 7.4, 4° C., 1 ml) containing test compounds or 30 μM serotonin; and the mixture was incubated at 37° C. for 30 minutes. On quenching the reaction, the mixture was rapidly filtered on whatman GF/B filter, which was presoaked in 0.1% polyethyleneimine for 1 hour, by using Brandel cell Harvester, and washed with ice-cooled 50 mM Tris-HCl (pH 7.7, 4 ml) three times. To the filter after filtration was added a liquid scintillator (Ecoscint), and then a radioactivity was determined by a liquid scintillation counter.
50% Inhibition concentrations (IC50) were determined from inhibition rates of test compounds to specific bindings which were obtained by subtracting nonspecific bindings from total binding amounts of [^3H]-GR113808.
(§1) In the following table, the compounds used in the test are shown in numbers which correspond to the Example numbers above where the preparations of the compounds are described.

[2] = target: T2, human 5-HT4b receptor (Homo sapiens, UniProt Q13639); assay: Test Example 2: Serotonin 4 (5-HT4) receptor agonist activity assay, cAMP HTRF in CHO cells (Table 97); format: cell-based; conditions: cAMP in CHO cells expressing human 5-HT4b receptor, mean value; for Emax: 0.25 h, intrinsic activity, maximal activity of 5-HT defined as 100%, read-out: IA (%); for EC50: concentration showing 50% of IA
T2 construct: expressed in transfected cells; host or cells: CHO cells (G418 selection)
T2 sequence (Q13639 whole entry): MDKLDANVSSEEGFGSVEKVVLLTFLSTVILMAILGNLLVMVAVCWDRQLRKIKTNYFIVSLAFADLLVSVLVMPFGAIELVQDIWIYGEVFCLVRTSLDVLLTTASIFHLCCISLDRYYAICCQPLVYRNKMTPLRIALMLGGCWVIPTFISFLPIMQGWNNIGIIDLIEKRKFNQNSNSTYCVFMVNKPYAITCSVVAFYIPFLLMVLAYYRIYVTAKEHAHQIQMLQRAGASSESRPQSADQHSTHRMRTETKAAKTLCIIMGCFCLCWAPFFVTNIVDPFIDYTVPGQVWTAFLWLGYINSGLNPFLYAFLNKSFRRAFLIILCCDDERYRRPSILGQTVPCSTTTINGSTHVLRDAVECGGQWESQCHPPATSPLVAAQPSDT
Method: The cAMP measurement test used herein was carried out by using CISBIO HTRF (trademark) cAMP Hirange kit according to the manufacturer's instructions attached therewith.
CHO cells expressing human 5-HT4b receptor were incubated in Medium 1 [DMEM/1% NEAA, 1% penicillin/streptomycin (P/S), 0.2 mg/mL GENETICIN (G418), 10% FBS] at 37° C. under 5% CO2 condition. Then, the cells were put into Medium 2 (DMEM/10000 cut FBS, G-418, P/S, NEAA) for 1 to 2 hours, and collected by treating with trypsin containing EDTA. The collected cells were suspended in Assay Buffer 1 [100 mM Hanks/HEPES buffer (pH 7.4)], the suspended cells were mixed with the testing compound on 384-well plates, and the cells were incubated at 31° C. for 15 minutes. To the cells were added cAMP-cryptate solution and cAMP-d2 solution, and they were incubated at room temperature for 1 hour. Then, time-resolved fluorescence was measured by En Vision (excitation wavelength: 330 nm, fluorescence wavelength: 620/665 nm). An intrinsic activity of the compound [IA (%)] and a concentration showing 50% of IA [EC50 (nM)] were calculated from the obtained results. In particular, the intrinsic activity (IA) was calculated on the basis of the maximal activity of 5-HT (measured from 10^−11 M to 10^−7 M) defined as 100%.
as §1

[3] = system: scopolamine-induced cognitive impairment; assay: Example 5: Y-maze test, scopolamine-induced cognitive impairment, single-agent administration (Table 101); format: in vivo, ddY mouse; conditions: p.o., scopolamine-treated, # = P<0.05 vs scopolamine group
From the text: Thus, scopolamine-induced cognitive impairment model, one of the AD-like model, has been used to predict pharmacodynamic signals of putative procognitive compounds, utilizing the acetylcholinesterase inhibitor donepezil for illustration (See, Citations 1 and 2). The present inventors investigated the effect of each compound on reversal of scopolamine-induced deficits in performance of Y-maze test in mice, and they also investigated adjunctive effect of compounds with donepezil on reversal of deficits induced by scopolamine and MK801 in mice.
Used animal: ddY mouse (SLC)
In the experiments, the mice were grouped in the same way using Stat Preclinica (Version 1.03295; Takumi Information Technology Inc.). The selected mice were divided into 5 to 7 groups of 7 to 12 mice using the “completely randomization design by the single variable” program (Analytical program version 1.0.7), with body weight on the testing day. After grouping, p values for Bartlett's test and ANOVA across all groups were greater than 0.2, indicating no significant difference in this parameter among the groups.
The required amount of each compound was weighed and put into a glass homogenizer. […]
The required amount of scopolamine and MK801 were weighed, and saline was added to it to give 0.3 mg/mL and 0.015 mg/mL solution, respectively.
90 Min before the test, the mice were orally administered each compound, donepezil, and vehicle (0.5% methyl cellulose, 10 mL/kg). After 60 min, memory impairment was induced by administering scopolamine (0.6 mg/kg, s.c.) with (co-administration) or without (mono-administration) MK801 (0.03 mg/kg, s.c.). The control group received saline (2 mL/kg, s.c.) rather than scopolamine and MK801.
The Y-maze used herein is a three-arm maze with equal angles between all arms. The mazefloor and walls were constructed from black acrylic resin. The mice were initially placed within one arm, and the sequence and number of arm entries were recorded manually for each mouse over an 8-min period.
Data were processed and analyzed with Microsoft® Office Excel 2003. The alternation behavior was defined as entries into all three arms on consecutive occasions. The percent alternation behavior in each animal was calculated using the following formula, and rounded to one decimal place.
Alternation behavior(%)=[actual alternation/(total arm entries−2)]×100
Restoration ratio of alternation behavior (%) in each animal was calculated using the following formula, and rounded to one decimal place.
Restoration ratio of alternation behavior in each animal (%)=y Alternation behavior in each animal (%)=x Mean of alternation behavior in vehicle-treated group (group No. 1) (%)=A Mean of alternation behavior in scopolamine-treated group (group No. 2) (%)=B
Data were expressed as the mean of the percent alternation behavior, the number of total arm entries and the restoration ratio of alternation behavior.
Values of Y-maze tests are expressed as mean of alternation behavior (n=7−12).
Alternation behaviors in the scopolamine-treated groups were compared to those in the control groups using Wilcoxon rank sum test (Stat preclinical; Version 1.03295; Takumi Information Technology Inc.) with a two-sided significance level of 0.05.
Restoration of alternation behavior was analyzed using Stat Preclinica. Alternation behaviors in the vehicle-treated group were compared to those in the test substance-treated groups using non-parametric Dunnett multiple comparison test (Analytical program version 1.0.2) with a two-sided significance level of 0.05.

Row | SMILES | IC50 [1] | Emax [2] | EC50 [2] | Alternation behavior (%) ([3]; compound 1 mg/kg) | Alternation behavior (%) ([3]; compound 3 mg/kg) | Alternation behavior (%) ([3]; compound 10 mg/kg)
1 | CCc1nn(-c2noc(C3CCN(CC4CCCO4)CC3)n2)c2ccccc12 (stereo not drawn) [Example 132, 3-ethyl-1-{5-[1-(tetrahydrofuran-2-ylmethyl)piperidin-4-yl]-1,2,4-oxadiazol-3-yl}-1H-indazole] | < 0.02 µM | 29% | 0.0147 µM |  |  | 
2 | CCc1nn(-c2noc(C3CCN(CC4CCOCC4)CC3)n2)c2cc(F)ccc12 [Example 134, 3-ethyl-6-fluoro-1-{5-[1-(tetrahydro-2H-pyran-4-ylmethyl)piperidin-4-yl]-1,2,4-oxadiazol-3-yl}-1H-indazole] | 0.0242 µM | 81% | 0.0121 µM |  |  | 
3 | CCc1nn(-c2noc(C3CCN(C4CCOC4)CC3)n2)c2cc(F)ccc12 (stereo not drawn) [Example 138, 3-ethyl-6-fluoro-1-{5-[1-(tetrahydrofuran-3-yl)piperidin-4-yl]-1,2,4-oxadiazol-3-yl}-1H-indazole] | < 0.02 µM | 67% | 0.0224 µM |  |  | 
4 | CCc1nn(-c2noc(C3CCN(C(C)C)CC3)n2)c2cc(F)ccc12 [Example 143, 3-ethyl-6-fluoro-1-{5-[1-(propan-2-yl)piperidin-4-yl]-1,2,4-oxadiazol-3-yl}-1H-indazole] | < 0.02 µM | 81% | 0.006 µM |  |  | 
5 | CCc1nn(-c2noc(C3CCN(CC4CCN(C(=O)OC)CC4)CC3)n2)c2cc(F)ccc12 [Example 171, methyl 4-({4-[3-(3-ethyl-6-fluoro-1H-indazol-1-yl)-1,2,4-oxadiazol-5-yl]piperidin-1-yl}methyl)piperidine-1-carboxylate] | 0.0319 µM | 51% | 0.0308 µM |  |  | 
6 | CCc1nn(-c2noc(C3CCN(C[C@@H]4CCCN4C(=O)OC)CC3)n2)c2ccccc12 [Example 178, methyl (2S)-2-({4-[3-(3-ethyl-1H-indazol-1-yl)-1,2,4-oxadiazol-5-yl]piperidin-1-yl}methyl)pyrrolidine-1-carboxylate] | < 0.02 µM | 38% | 0.0109 µM |  |  | 
7 | CCc1nn(-c2noc(C3CCN(C[C@@H]4CCCN4C(=O)OCCF)CC3)n2)c2c(F)cccc12 [Example 182, 2-fluoroethyl (2S)-2-({4-[3-(3-ethyl-7-fluoro-1H-indazol-1-yl)-1,2,4-oxadiazol-5-yl]piperidin-1-yl}methyl)pyrrolidine-1-carboxylate] | < 0.02 µM | 38% | 0.004 µM |  |  | 
8 | CCc1nn(-c2noc(C3CCN(C[C@@H]4CCN(C(=O)OCCF)C4)CC3)n2)c2ccccc12 [Example 195, 2-fluoroethyl (3S)-3-({4-[3-(3-ethyl-1H-indazol-1-yl)-1,2,4-oxadiazol-5-yl]piperidin-1-yl}methyl)pyrrolidine-1-carboxylate] | < 0.02 µM | 49% | 0.0314 µM |  |  | 
9 | CCc1nn(-c2noc(C3CCN(C[C@H]4CCN(C(C)=O)C4)CC3)n2)c2cc(F)ccc12.Cl [Example 205, 1-[(3R)-3-({4-[3-(3-ethyl-6-fluoro-1H-indazol-1-yl)-1,2,4-oxadiazol-5-yl]piperidin-1-yl}methyl)pyrrolidin-1-yl]ethanone hydrochloride] |  |  |  | 66.9^# % | 54.8% | 66.7^# %
10 | CCc1nn(-c2noc(C3CCN(CC4CN(C(=O)OC)C4)CC3)n2)c2c(F)cccc12 [Example 218, methyl 3-({4-[3-(3-ethyl-7-fluoro-1H-indazol-1-yl)-1,2,4-oxadiazol-5-yl]piperidin-1-yl}methyl)azetidine-1-carboxylate] |  |  |  | 59.9% | 53% | 61.3%
11 | CCc1nn(-c2noc(C3CCN(C4CCN(C(C)=O)CC4)CC3)n2)c2cc(F)ccc12 [Example 228, 1-{4-[3-(3-ethyl-6-fluoro-1H-indazol-1-yl)-1,2,4-oxadiazol-5-yl]-1,4′-bipiperidin-1′-yl}ethanone hydrochloride] | 0.0287 µM | 66% | 0.0082 µM |  |  | 
12 | CCc1nn(-c2noc(C3CCN(C4CCN(C(C)=O)CC4)CC3)n2)c2c(F)cccc12 [Example 229, 1-{4-[3-(3-ethyl-7-fluoro-1H-indazol-1-yl)-1,2,4-oxadiazol-5-yl]-1,4′-bipiperidin-1′-yl}ethanone hydrochloride] | < 0.02 µM | 55% | 0.0029 µM |  |  | 
13 | CCc1nn(-c2noc(C3CCN(C4CCN(C(=O)OC)CC4)CC3)n2)c2cc(F)ccc12 [Example 230, methyl 4-[3-(3-ethyl-6-fluoro-1H-indazol-1-yl)-1,2,4-oxadiazol-5-yl]-1,4′-bipiperidine-1′-carboxylate] | 0.0251 µM | 65% | 0.0179 µM |  |  | 
14 | CCc1nn(-c2noc(C3CN(C4CCN(C(=O)OC)CC4)C3)n2)c2ccccc12 [Example 257, methyl 4-{3-[3-(3-ethyl-1H-indazol-1-yl)-1,2,4-oxadiazol-5-yl]azetidin-1-yl}piperidine-1-carboxylate] | < 0.02 µM | 48% | 0.0607 µM |  |  | 
15 | CCc1nn(-c2noc(C3CCN(CCCO)CC3)n2)c2ccccc12 [Example 261, 3-{4-[3-(3-ethyl-1H-indazol-1-yl)-1,2,4-oxadiazol-5-yl]piperidin-1-yl}propan-1-ol] | < 0.02 µM | 84% | 0.0062 µM |  |  | 

— patent publication US20140057895A1, “INDAZOLE- AND PYRROLOPYRIDINE-DERIVATIVE AND PHARMACEUTICAL USE THEREOF” (priority 2011, published 2014)
